In patent US4205170A, “Propionic acid derivatives” (priority 1976, dated 1980):
Like-named read-outs stand apart in the source and are kept apart here.

Test system: edema in the hind paws (carrageenan)
Experiment: carrageenan-induced hind paw edema, oral administration
Assay type: in vivo, male Wistar rats
Conditions: Rattus norvegicus; for inhibition in vivo at 10 mg/kg: 10 mg/kg orally; for inhibition in vivo at 5 mg/kg: 5 mg/kg orally; for inhibition in vivo at 1 mg/kg: 1 mg/kg orally
Protocol: That is, male Wistar rats weighing about 100 g, one group consisting of 5 to 7 animals, were given orally the compounds according to the present invention and then edema was induced in the hind paws by subcutaneous injections of 0.1 ml of 1% carrageenan 1 hour after the administration of the test compounds, and the volumes of the hind paws were measured by a volume differential meter.

[1] = 1 hr, read-out: Inhibition (%) 1 hr
[2] = 2 hr, read-out: Inhibition (%) 2 hr
[3] = 3 hr, read-out: Inhibition (%) 3 hr
[4] = 4 hr, read-out: Inhibition (%) 4 hr
[5] = 5 hr, read-out: Inhibition (%) 5 hr
[6] = 6 hr, read-out: Inhibition (%) 6 hr

Compound	inhibition in vivo at 10 mg/kg [1]	inhibition in vivo at 10 mg/kg [2]	inhibition in vivo at 10 mg/kg [3]	inhibition in vivo at 10 mg/kg [4]	inhibition in vivo at 10 mg/kg [5]	inhibition in vivo at 10 mg/kg [6]	inhibition in vivo at 5 mg/kg [1]	inhibition in vivo at 5 mg/kg [2]	inhibition in vivo at 5 mg/kg [3]	inhibition in vivo at 5 mg/kg [4]	inhibition in vivo at 5 mg/kg [5]	inhibition in vivo at 5 mg/kg [6]	inhibition in vivo at 1 mg/kg [1]	inhibition in vivo at 1 mg/kg [2]	inhibition in vivo at 1 mg/kg [3]	inhibition in vivo at 1 mg/kg [4]	inhibition in vivo at 1 mg/kg [5]	inhibition in vivo at 1 mg/kg [6]
CC(C(=O)O)c1ccc2c(c1)CCc1cccnc1S2 (stereo not drawn) [Compound 21, 2-(5,6-dihydrobenzo[b]pyrido[3,2-f]thiepin-8-yl)-propionic acid]	69.5%	75.6%	69%	67%	70.3%	64.6%	–	–	–	–	–	–	–	–	–	–	–	–
CC(C(N)=O)c1ccc2c(c1)C(=O)Cc1ccccc1O2 (stereo not drawn) [Compound 10, 2-(10,11-dihydro-11-oxodibenzo[b,f]oxepin-2-yl)-propionamide]	71.2%	69.3%	76.3%	76.7%	56.4%	34.4%	–	–	–	–	–	–	–	–	–	–	–	–
CC(C(=O)O)c1ccc2c(c1)C(=O)Cc1cccnc1O2 (stereo not drawn) [Compound 26, 2-(5,6-dihydro-6-oxobenzo[b]pyrido[3,2-f]oxepin-8-yl)-propionic acid]	–	–	–	–	–	–	55.7%	52.6%	40%	32.2%	29.7%	24%	–	–	–	–	–	–
CC(C(=O)O)c1ccc2c(c1)Sc1ccccc1CC2=O (stereo not drawn) [Compound 6, 2-(10,11-dihydro-11-oxodibenzo[b,f]thiepin-3-yl)-propionic acid]	65.9%	41.5%	31.8%	26.1%	22.3%	20.5%	–	–	–	–	–	–	–	–	–	–	–	–
CCOC(=O)C(C)c1ccc2c(c1)CCc1ccccc1O2 (stereo not drawn) [Compound 14, Ethyl 2-(10,11-dihydrodibenzo[b,f]oxepin-2-yl)-propionate]	48.6%	67.6%	60.3%	53.2%	35.8%	26%	–	–	–	–	–	–	–	–	–	–	–	–
CC(C(=O)O)c1ccc2c(c1)C(=O)Cc1cccnc1S2 (stereo not drawn) [Compound 20, 2-(5,6-dihydro-6-oxobenzo[b]pyrido[3,2-f]thiepin-8-yl)-propionic acid]	45%	54.3%	47.5%	33.8%	28.9%	24.3%	–	–	–	–	–	–	–	–	–	–	–	–
CCOC(=O)C(C)c1ccc2c(c1)C(=O)Cc1ccccc1O2 (stereo not drawn) [Compound 11, Ethyl 2-(10,11-dihydro-11-oxodibenzo[b,f]oxepin-2-yl)-propionate]	21.2%	56.8%	64.9%	70%	62.8%	52.6%	–	–	–	–	–	–	–	–	–	–	–	–
CC(C(N)=O)c1ccc2c(c1)CCc1cccnc1S2 (stereo not drawn) [Compound 23, 2-(5,6-dihydrobenzo[b]pyrido[3,2-f]thiepin-8-yl)-propionamide]	–	–	–	–	–	–	22.6%	53.8%	60.9%	64.1%	51.8%	37.5%	–	–	–	–	–	–
CCOC(=O)C(C)c1ccc2c(c1)CCc1cccnc1S2 (stereo not drawn) [Compound 22, Ethyl 2-(5,6-dihydrobenzo[b]pyrido[3,2-f]thiepin-8-yl)-propionate]	29.6%	51.7%	59.1%	57%	45.9%	42.8%	–	–	–	–	–	–	–	–	–	–	–	–
COc1ccc2c(c1)c(CC(=O)O)c(C)n2C(=O)c1ccc(Cl)cc1 [Indomethacin, reference compound]	64.4%	59.8%	52.1%	63.8%	54.4%	50.3%	38.3%	51.7%	59.2%	58.4%	48.7%	41%	21.6%	39.6%	29.9%	36.4%	28.9%	28.7%
CCOC(=O)C(C)c1ccc2c(c1)C(=O)Cc1ccccc1S2 (stereo not drawn) [Compound 3, Ethyl 2-(10,11-dihydro-11-oxodibenzo[b,f]thiepin-2-yl)-propionate]	62.3%	72%	79.9%	78.2%	74.5%	64.5%	–	–	–	–	–	–	–	–	–	–	–	–
